Patent US6958141B2, “Rhenium and technetium complexes containing a hypoxia-localizing moiety” (Bracco International B.V., priority 1991, dated 2005)

Tests used:
[1] = Determination of reduction potential by cyclic voltammetry; type: physicochemical; conditions: for Epc(V): cyclic voltammetry in dimethylformamide at Hg, vs. Ag/AgNO3; for Reduction process: cyclic voltammetry in dimethylformamide
Description: The reduction potentials of misonidazole, ^99TcO(PnAO), and ^99Tc-hypoxia-localizing tracers were determined by cyclic voltammetry (C.V.) in dimethylformamide. […] The reference electrode was Ag/AgNO3 with an acetonitrile filling solution saturated with LiCl. The counter electrode was a platinum wire. Voltamograms at mercury were determined at scan rates of 50, 100, 200, and 500 mV/s.
The solutions used in C.V. studies contained test sample at a concentration of 0.2-0.7 mM and tetrabutylammonium tetrafluoroborate (Bu4NBF4) or tetrabutylammonium hexafluorophosphate (Bu4NPF6) supporting electrolyte at a concentration of 0.1M. The solution was deoxygenated by bubbling solvent-saturated nitrogen or argon through the solution for 15 minutes. Variations in the reference potential were accounted for by determining the C.V. of a Ru(acac)3 standard on a daily basis.

xanthine oxidase = target: T1, xanthine oxidase (Bos taurus, UniProt P80457); experiment: Reduction of the Tc nitroimidazole complexes by xanthine oxidase; type: biochemical; conditions: xanthine oxidase 1.25 units, hypoxanthine, pH 7.4, anaerobic (argon), up to 7 hours
T1 construct: purchased Boeringer (sic; Boehringer)
T1 sequence (P80457 whole entry): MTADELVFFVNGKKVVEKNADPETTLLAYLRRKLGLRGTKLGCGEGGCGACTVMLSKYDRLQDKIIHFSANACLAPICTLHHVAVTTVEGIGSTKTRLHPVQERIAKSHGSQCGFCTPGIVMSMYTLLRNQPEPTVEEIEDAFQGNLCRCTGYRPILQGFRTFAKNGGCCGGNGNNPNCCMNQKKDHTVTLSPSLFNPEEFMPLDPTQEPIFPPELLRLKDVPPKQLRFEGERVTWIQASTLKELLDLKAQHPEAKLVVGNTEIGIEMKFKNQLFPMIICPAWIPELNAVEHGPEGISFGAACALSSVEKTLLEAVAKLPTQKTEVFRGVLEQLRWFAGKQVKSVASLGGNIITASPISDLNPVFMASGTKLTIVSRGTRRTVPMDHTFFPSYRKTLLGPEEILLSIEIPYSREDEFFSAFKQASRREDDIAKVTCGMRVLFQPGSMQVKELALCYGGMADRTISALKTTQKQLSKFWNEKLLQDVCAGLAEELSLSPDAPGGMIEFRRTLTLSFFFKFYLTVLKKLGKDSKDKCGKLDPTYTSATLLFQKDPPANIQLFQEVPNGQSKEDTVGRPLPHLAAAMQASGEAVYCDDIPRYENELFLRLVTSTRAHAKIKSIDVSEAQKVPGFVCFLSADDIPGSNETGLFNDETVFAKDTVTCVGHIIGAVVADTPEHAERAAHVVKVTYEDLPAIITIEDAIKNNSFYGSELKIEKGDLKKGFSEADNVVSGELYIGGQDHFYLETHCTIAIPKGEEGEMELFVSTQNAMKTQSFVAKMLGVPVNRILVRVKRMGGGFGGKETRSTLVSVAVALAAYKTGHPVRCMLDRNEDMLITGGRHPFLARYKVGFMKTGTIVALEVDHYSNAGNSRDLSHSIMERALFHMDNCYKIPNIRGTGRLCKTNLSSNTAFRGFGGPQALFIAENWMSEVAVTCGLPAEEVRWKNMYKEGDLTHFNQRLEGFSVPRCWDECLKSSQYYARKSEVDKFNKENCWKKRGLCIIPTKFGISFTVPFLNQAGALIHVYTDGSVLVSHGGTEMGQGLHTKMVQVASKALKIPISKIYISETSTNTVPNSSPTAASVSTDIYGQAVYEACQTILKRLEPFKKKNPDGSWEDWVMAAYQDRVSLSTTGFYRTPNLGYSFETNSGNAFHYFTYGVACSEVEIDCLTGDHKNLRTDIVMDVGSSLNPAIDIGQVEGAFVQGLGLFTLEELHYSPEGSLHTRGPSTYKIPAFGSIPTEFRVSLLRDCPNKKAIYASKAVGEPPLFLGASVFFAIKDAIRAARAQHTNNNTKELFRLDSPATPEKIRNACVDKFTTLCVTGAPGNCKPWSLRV
Source text: The enzyme xanthine oxidase (in the presence of xanthine or hypoxanthine) is known to reduce the nitro group of such nitroimidazole-containing compounds as misonidazole and metronidazole (see for example P. D. Josephy, B. Palcic and L. D. Skarsgard,. “Reduction of Misonidazole and its Derivatives by Xanthine Oxidase”, Biochem. Pharmacol., 1981, 30, 849), and it has been postulated that such nitro reduction under anaerobic conditions is responsible for the selective trapping of these compounds in hypoxic tissue. Thus, a technetium or rhenium containing nitroimidazole complex should be capable of being reduced by xanthine oxidase under anaerobic conditions in the presence of hypoxanthine.
To a 2.5 mL quartz cuvette was added 0.25 micromoles of the ^99Tc-nitroimidazole complex of Example 6 or 6b in 125 μL of dimethylformamide, 1 mL of 0.01M hypoxanthine in pH 7.4 sodium phosphate buffer (0.1M), and 0.875 mL of 0.1M sodium phosphate buffer (pH 7.4) that contained 20 mg/L of disodium ethylenediamine tetraacetic acid (EDTA). The cuvette was sealed with a rubber septum, and purged with argon for 15 minutes to remove oxygen. To this was added 1.25 units of the enzyme xanthine oxidase (Boeringer) in 0.5 mL of deoxygenated pH 7.4 phosphate buffer. The cuvette was inverted to mix, and the UV/visible spectrum of the solution was recorded from 280 to 600 nm at 15 minute intervals.
It is believed that the disappearance of this nitro absorbance is due to reduction of the nitro group by xanthine oxidase.
In a parallel control reaction, the reagents above were mixed in the same fashion, but the ^99Tc complex of 3,3,9,9-tetramethyl-4,8-diazaundecane-2,10-dione dioxime (prepared by the method of Jurisson et al., Inorg. Chem., 1986, 25, 543) was substituted for the technetium complexes of Examples 6 or 6b.

[2] = test system: hypoxic ischemic border zone; experiment: Rabbit focal myocardial ischemia model (LAD occlusion), double-label autoradiography; type: in vivo; conditions: permanent LAD coronary artery ligation, intravenous tracer, heart sections
Description: A model of focal myocardial ischemia in the rabbit was developed, using permanent ligation of the left anterior descending (LAD) coronary artery. The model consisted of two studies. In the first, relative regional myocardial blood flow (MBF) and relative regional myocardial rate of glucose metabolism (MMRgl) were determined by autoradiography using a double-label study with the flow tracer ^99mTcCl(CDO)3MeB (R. K. Narra et al., J. Nucl. Med., 1989; 30:1830-1837) and ^14C-deoxy-glucose for MMRgl (L. Sokoloff et al., J. Neurochem., 1977, 28, 897-916). ^14C-deoxyglucose and the ^99mTc-hypoxia-localizing tracer were administered to a second group of rabbits with LAD coronary artery occlusion.
After the surgical preparation and 20 minutes of LAD occlusion, ^14C-deoxyglucose (130-150 μCi) was injected as an intravenous bolus, and timed arterial blood samples were obtained. Twenty-five minutes later, ^99mTcCl(CDO)3MeB (10-12 mCi) was administered intravenously. Five minutes later, the rabbits were sacrificed by intravenous injection of Nembutal and potassium chloride. The heart was excised, frozen in liquid Freon-22, and 20 μm coronal sections obtained with a Microtome. Autoradiographs were obtained on all sections. For the first exposure (˜14 hours duration) of Kodak XAR film, extra heavy duty aluminum foil was interposed between the tissue and film to block completely the radiation emanating from ^14C to obtain the MBF information derived from ^99mTcCl(CDO)3MeB alone. After three days (to allow for decay of ^99mTc); a second autoradiograph was obtained without foil. The second exposure lasted 6-8 days, and,provided an image of the regional distribution of ^14C-deoxyglucose.
In a separate experiment using the rabbit LAD occlusion model and the double-label autoradiography procedures described above, the performance of the ^99mTc complex of the ligand described in Example 1 was compared to that of ^14C-misonidazole.

hypoxic border zone = experiment: Rat focal cerebral ischemia model (MCA occlusion), double-label autoradiography; type: in vivo, spontaneously hypertensive rats (SHR); conditions: SHR, injected 1 hour or five days after MCA occlusion, both time points
Description: A model of focal cerebral ischemia involving tandem occlusion of the internal carotid artery and the ipsilateral middle cerebral artery (MCA) in spontaneously hypertensive rats (SHR) was characterized using the double-label autoradiography procedure described in Example 10. […] Following surgery, which was performed under Halothane anesthesia, the rats were allowed to recover and one hour after the MCA occlusion, ^14C-deoxyglucose was injected as an IV bolus and timed arterial samples were obtained. Twenty-five minutes after ^14C-deoxyglucose injection, ^99mTcCl(DMG)32MP was injected as an IV bolus and the rat was sacrificed 15 seconds later. The brain was rapidly removed and sections and autoradiograms were obtained as described in Example 10. As found in Example 10 for the rabbit LAD occlusion model, the ischemic territory was bordered by a rim of tissue in which glycolysis was elevated. […] Nevertheless, it was clear that the ischemic region is surrounded by a border zone of increased glycolysis. In a second series of experiments, the ^99mTc complex of the ligand described in Example 1 and ^14C-deoxyglucose were co-injected 1 hour or five days after MCA occlusion.

Molecule	Epc(V) ([1]; first or only reduction listed)	Epc(V) ([1]; second reduction listed)	Reduction process ([1]; first or only reduction listed)	Reduction process ([1]; second reduction listed)	absorbance peak at approximately 320 nm (nitroimidazole functionality), UV/visible spectral change (xanthine oxidase)	regional myocardial distribution pattern (autoradiography) [2]	uptake in brain autoradiograms (hypoxic border zone)
CC1=[N+](O)[99Tc-]23(=[O])[N](CCC[N]2C1(C)C)C(C)(C)C(Cn1ccnc1[N+](=O)[O-])=[N+]3[O-] [Example 6, [^99Tc]Oxo[[3,3,9,9-tetramethyl-1-(2-nitro-1H-imidazo-1-yl)-4,8-diazaundecane-2,10-dione dioximato]-(3-)-N,N′,N″,N′″]technetium(V)]	−1.49 V	−1.99 V	reversible	irreversible	decreased in intensity	–	–
CC1=[N+](O)[99Tc-]23(=[O])[N](CC(O)C[N]2C1(C)C)C(C)(C)C(Cn1ccnc1[N+](=O)[O-])=[N+]3[O-] (stereo not drawn) [Example 6b, [^99Tc]Oxo[[6-hydroxy-3,3,9,9-tetramethyl-(2-nitro-1H-imidazo-1-yl)-4,8-diazaundecane-2,10-dione dioximato]-(3-)-N,N′,N″,N′″]technetium (V)]	−1.48 V	−1.96 V	reversible	irreversible	decreased in intensity	–	–
CC1=[N+]([O-])[99Tc-]23(=[O])[N](CCC[N]2C(C)(C)C(C)=[N+]3O)C1(C)C [^99TcO(PnAO), Tc(V) Oxo 3,3,9,9-tetramethyl-4-8-diazaundecane-2,10-dione-dioxime, reference compound]	−2.15 V	–	irreversible	–	no spectral changes were observed over a period of 7 hours	–	–
^14C-deoxyglucose [reference compound]	–	–	–	–	–	high uptake in the ischemic border zone	increased uptake in the hypoxic border zone relative to surrounding normoxic tissue
